Reference: publication PMC11859309, “Design, Synthesis, and Computational Evaluation of 3,4-Dihydroquinolin-2(1H)-One Analogues as Potential VEGFR2 Inhibitors in Glioblastoma Multiforme” (Pharmaceuticals, 2025)
One block for each molecule: values may come before it.

Key:
[1] = PAMPA, GI-mimicking membrane; format: in vitro ADME; conditions: class relative to high and low permeability controls
Method: (§1) The permeability of the synthesised compounds was evaluated using the parallel artificial membrane permeability assay (PAMPA) to estimate their ability to cross biological membrane mimics of both the gastrointestinal (GI) membrane and the blood–brain barrier (BBB).
(§2) The PAMPA assay (BioAssay System, Hayward, CA 94545, USA) has been used for testing the permeability rates of drugs through the BBB-mimicking membrane. […] The permeability assay was performed for 18 h in a 37 °C incubator.

[2] = tested on: U138-MG glioblastoma cell line; assay: MTT cell proliferation assay, U138-MG; format: cell-based; conditions: for IC50 / activity at 10 µM / inhibition at 10 µM: Homo sapiens; for IC50 / activity at 10 µM: MTT; for IC50: 0–160 μM; for activity at 10 µM: compound 10 μM, 48 h, read-out: Cell Proliferation ± Std dev. (%) U138; for inhibition at 10 µM: read-out: cell inhibition percentage (activity)
Method: (§3) U87-MG (HTB-16) and U138-MG (HTB-14) lines were purchased from ATCC. The cells were cultured in DMEM-HG Medium (41966-029, Gibco, Grand Island, NE, USA) and supplemented with 10% fetal bovine serum (FBS, 10500-064, Gibco) and 1% Penicillin–Streptomycin (P/S, 15140-122, Gibco). After 24 h of seeding cells, all compounds dissolved in 0.4% dimethyl sulfoxide (DMSO, A3672-0250, AppliChem, Darmstadt, Germany) were treated in the cells.
The proliferation effects of the drug candidates on the U87-MG and U138-MG cell lines were tested using the MTT (3-(4,5-dimethylthiazol-2-yl)-2,5-diphenyltetrazolium bromide) assay. A total of 7 × 10^3 cells per well of both U87-MG and U138-MG cells were seeded into a 96-well plate in triplicate for the assay. […] After the incubation period, 10 μL of MTT solution (5 mg/mL in PBS) was added to each well. The MTT solution was aspirated from the wells after 2 h. Then, 100 μL of DMSO was added and mixed to dissolve the formazan crystals. Cell proliferation was analysed by measuring the absorbance of the dissolved formazan at a wavelength of 570 nm using a microplate reader (Epoch, San Jose, CA, USA). […] Each experiment was carried out in triplicate to ensure reliability and statistical significance.

[3] = PAMPA, BBB-mimicking membrane; format: in vitro ADME; conditions: 500 μM, 18 h, 37 °C
Method: as §1, §2

[4] = tested on: U87-MG glioblastoma cell line; assay: MTT cell proliferation assay, U87-MG; format: cell-based; conditions: for activity at 10 µM: compound 10 μM, 48 h, read-out: Cell Proliferation ± Std dev. (%) U87; for IC50: 0–160 μM
Method: as §3
The proliferation effects of the drug candidates on the U87-MG and U138-MG cell lines were tested using the MTT (3-(4,5-dimethylthiazol-2-yl)-2,5-diphenyltetrazolium bromide) assay. A total of 7 × 10^3 cells per well of both U87-MG and U138-MG cells were seeded into a 96-well plate in triplicate for the assay. After 24 h, each compound was added at a dose of 10 μM and incubated for 48 h. After the incubation period, 10 μL of MTT solution (5 mg/mL in PBS) was added to each well. The MTT solution was aspirated from the wells after 2 h. Then, 100 μL of DMSO was added and mixed to dissolve the formazan crystals. Cell proliferation was analysed by measuring the absorbance of the dissolved formazan at a wavelength of 570 nm using a microplate reader (Epoch, San Jose, CA, USA). […] Each experiment was carried out in triplicate to ensure reliability and statistical significance.

[5] = equals 100 minus cell proliferation of Table 1 (10 μM, 48 h)

SMILES: Cc1[nH]c2ccccc2c1/C=N/NC(=O)COc1ccc2c(c1)CCC(=O)N2 [4g, (E)-N′-((2-Methyl-1H-Indol-3-Yl)Methylene)-2-((2-Oxo-1,2,3,4-Tetrahydroquinolin-6-Yl)Oxy)Acetohydrazide]
IC50 [2]: 9.2 µM

SMILES: CCCc1ccc(/C=N/NC(=O)COc2ccc3c(c2)CCC(=O)N3)cc1 [4h, (E)-2-((2-Oxo-1,2,3,4-Tetrahydroquinolin-6-Yl)Oxy)-N′-(4-Propylbenzylidene)Acetohydrazide]
activity at 10 µM [2]: 100 ± 2.3%
inhibition at 10 µM [2, 5]: 0%
Permeability through BBB-mimicking membrane (class in words) [3]: high permeability

SMILES: O=C(COc1ccc2c(c1)CCC(=O)N2)N/N=C/c1ccc(-c2ccc(Cl)cc2)cc1 [4w, (E)-N′-((4′-Chloro-[1,1′-Biphenyl]-4-Yl)Methylene)-2-((2-Oxo-1,2,3,4-Tetrahydroquinolin-6-Yl)Oxy)Acetohydrazide]
activity at 10 µM ([4]; Homo sapiens, U-87 MG): 63 ± 2.5%
activity at 10 µM [2]: 80 ± 6.9%
inhibition at 10 µM [2, 5]: 20%

SMILES: O=C(COc1ccc2c(c1)CCC(=O)N2)N/N=C/c1ccccc1 [4j, (E)-N′-Benzylidene-2-((2-Oxo-1,2,3,4-Tetrahydroquinolin-6-Yl)Oxy)Acetohydrazide]
Permeability through BBB-mimicking membrane (class in words) [3]: high permeability

SMILES: O=C(COc1ccc2c(c1)CCC(=O)N2)N/N=C1\C(=O)Nc2ccc([N+](=O)[O-])cc21 [4o, (Z)-N′-(5-Nitro-2-Oxoindolin-3-Ylidene)-2-((2-Oxo-1,2,3,4-Tetrahydroquinolin-6-Yl)Oxy)Acetohydrazide]
cell inhibition percentage (activity) [2, 5]: moderate activity

SMILES: O=C(COc1ccc2c(c1)CCC(=O)N2)NN=Cc1cccs1 [4d, 2-((2-Oxo-1,2,3,4-Tetrahydroquinolin-6-Yl)Oxy)-N′-(Thiophen-2-Ylmethylene)Acetohydrazide]
Permeability through GI-mimicking membrane (class in words) [1]: high permeability

SMILES: CN1C(=O)/C(=N\NC(=O)COc2ccc3c(c2)CCC(=O)N3)c2cc(F)ccc21 [4l, (Z)-N′-(5-Fluoro-1-Methyl-2-Oxoindolin-3-Ylidene)-2-((2-Oxo-1,2,3,4-Tetrahydroquinolin-6-Yl)Oxy)Acetohydrazide]
activity at 10 µM [2]: 73 ± 3.6%

SMILES: O=C(COc1ccc2c(c1)CCC(=O)N2)N/N=C/c1cnc(-c2ccc(Cl)cc2)nc1 [4q, (E)-N′-((2-(4-Chlorophenyl)Pyrimidin-5-Yl)Methylene)-2-((2-Oxo-1,2,3,4-Tetrahydroquinolin-6-Yl)Oxy)Acetohydrazide]
activity at 10 µM ([4]; Homo sapiens, U-87 MG): 67 ± 4.9%
IC50 [2]: 8 µM
activity at 10 µM [2]: 39 ± 3%
inhibition at 10 µM [2, 5]: 61%

SMILES: O=C(COc1ccc2c(c1)CCC(=O)N2)N/N=C/c1ccc(Cl)cc1 [4b, (E)-N′-(4-Chlorobenzylidene)-2-((2-Oxo-1,2,3,4-Tetrahydroquinolin-6-Yl) Oxy) Acetohydrazide]
inhibition at 10 µM [2, 5]: 40%

SMILES: O=C(COc1ccc2c(c1)CCC(=O)N2)N/N=C1\C(=O)Nc2ccc(F)cc21 [4m, (Z)-N′-(5-Fluoro-2-Oxoindolin-3-Ylidene)-2-((2-Oxo-1,2,3,4-Tetrahydroquinolin-6-Yl)Oxy)Acetohydrazide]
IC50 [2]: 4.2 µM

The next lines start with results.

Permeability through GI-mimicking membrane (class in words) [1]: high permeability
SMILES: O=C(COc1ccc2c(c1)CCC(=O)N2)N/N=C/c1ccc(F)cc1 [4s, (E)-N′-(4-Fluorobenzylidene)-2-((2-Oxo-1,2,3,4-Tetrahydroquinolin-6-Yl)Oxy)Acetohydrazide]

IC50 ([4]; Homo sapiens, U-87 MG): 92.9 µM
IC50 [2]: 93.1 µM
Permeability through BBB-mimicking membrane (class in words) [3]: lower permeability
Permeability through GI-mimicking membrane (class in words) [1]: lower permeability
SMILES: Cn1nnc2c(C(N)=O)ncn2c1=O [TMZ, temozolomide, reference compound]
activity at 10 µM ([4]; Homo sapiens, U-87 MG): 80 ± 5%
activity at 10 µM [2]: 78 ± 5%

IC50 [4]: 10.5 µM
IC50 ([4]; Homo sapiens, U-87 MG): 10.7 µM
Permeability through BBB-mimicking membrane (class in words) [3]: high permeability
SMILES: O=C(COc1ccc2c(c1)CCC(=O)N2)N/N=C/c1cccc(Oc2ccc(Cl)cc2)c1 [4t, (E)-N′-(3-(4-Chlorophenoxy)Benzylidene)-2-((2-Oxo-1,2,3,4-Tetrahydroquinolin-6-Yl)Oxy)Acetohydrazide]
activity at 10 µM ([4]; Homo sapiens, U-87 MG): 50 ± 3.2%
activity at 10 µM [2]: 65 ± 3.5%

IC50 ([4]; Homo sapiens, U-87 MG): 7.96 µM
SMILES: O=C(COc1ccc2c(c1)CCC(=O)N2)N/N=C/c1cccc2ccccc12 [4u, (E)-N′-(Naphthalen-1-Ylmethylene)-2-((2-Oxo-1,2,3,4-Tetrahydroquinolin-6-Yl)Oxy)Acetohydrazide]

IC50 ([4]; Homo sapiens, U-87 MG): 11.7 µM
SMILES: O=C(COc1ccc2c(c1)CCC(=O)N2)N/N=C/c1ccc(-c2ccccc2)cc1 [4v, (E)-N′-([1,1′-Biphenyl]-4-Ylmethylene)-2-((2-Oxo-1,2,3,4-Tetrahydroquinolin-6-Yl)Oxy)Acetohydrazide]
